Values after ≈ are worked out from the molar mass of the structure shown.
System: Enterobacter cloacae
Experiment: microbe, parasite or virus in culture
Conditions: not given

Structure (SMILES)	MIC
CC(C)(O/N=C(\C(=O)N[C@@H]1C(=O)N2C(C(=O)O)=C(CNC(=O)c3cc(O)c(O)c(Cl)c3)CSC12)c1csc(N)n1)C(=O)O (stereo not given in full)	0.06 µg/mL (≈ 0.0916 µM)

System: Citrobacter freundii
Experiment: microbe, parasite or virus in culture
Conditions: not given

Structure (SMILES)	MIC
CC(C)(O/N=C(\C(=O)N[C@@H]1C(=O)N2C(C(=O)O)=C(CNC(=O)c3cc(O)c(O)c(Cl)c3)CSC12)c1csc(N)n1)C(=O)O (stereo not given in full)	4 µg/mL (≈ 6.11 µM)

System: Providencia stuartii
Experiment: microbe, parasite or virus in culture
Conditions: not given

Structure (SMILES)	MIC
CC(C)(O/N=C(\C(=O)N[C@@H]1C(=O)N2C(C(=O)O)=C(CNC(=O)c3cc(O)c(O)c(Cl)c3)CSC12)c1csc(N)n1)C(=O)O (stereo not given in full)	0.03 µg/mL (≈ 0.0458 µM)

System: not listed separately
Experiment: The half life period in marmosets
Assay type: ADME
Conditions: callithrix, in vivo

Structure (SMILES)	half-life
CC(C)(O/N=C(\C(=O)N[C@@H]1C(=O)N2C(C(=O)O)=C(CNC(=O)c3cc(O)c(O)c(Cl)c3)CSC12)c1csc(N)n1)C(=O)O (stereo not given in full)	4.57 h

System: Pseudomonas aeruginosa
Experiment: microbe, parasite or virus in culture
Conditions: not given

Structure (SMILES)	MIC
CC(C)(O/N=C(\C(=O)N[C@@H]1C(=O)N2C(C(=O)O)=C(CNC(=O)c3cc(O)c(O)c(Cl)c3)CSC12)c1csc(N)n1)C(=O)O (stereo not given in full)	0.008 µg/mL (≈ 0.0122 µM)

System: Pseudomonas aeruginosa
Experiment: microbe, parasite or virus in culture
Conditions: not given
Remark: another data set of the same source

Structure (SMILES)	MIC
CC(C)(O/N=C(\C(=O)N[C@@H]1C(=O)N2C(C(=O)O)=C(CNC(=O)c3cc(O)c(O)c(Cl)c3)CSC12)c1csc(N)n1)C(=O)O (stereo not given in full)	0.008 µg/mL (≈ 0.0122 µM)

System: Providencia stuartii
Experiment: microbe, parasite or virus in culture
Conditions: not given
Remark: another data set of the same source

Structure (SMILES)	MIC
CC(C)(O/N=C(\C(=O)N[C@@H]1C(=O)N2C(C(=O)O)=C(CNC(=O)c3cc(O)c(O)c(Cl)c3)CSC12)c1csc(N)n1)C(=O)O (stereo not given in full)	2 µg/mL (≈ 3.05 µM)

System: Enterobacter cloacae
Experiment: microbe, parasite or virus in culture
Conditions: not given
Remark: another data set of the same source

Structure (SMILES)	MIC
CC(C)(O/N=C(\C(=O)N[C@@H]1C(=O)N2C(C(=O)O)=C(CNC(=O)c3cc(O)c(O)c(Cl)c3)CSC12)c1csc(N)n1)C(=O)O (stereo not given in full)	4 µg/mL (≈ 6.11 µM)

System: Enterobacter cloacae
Experiment: microbe, parasite or virus in culture
Conditions: not given
Remark: another data set of the same source

Structure (SMILES)	MIC
CC(C)(O/N=C(\C(=O)N[C@@H]1C(=O)N2C(C(=O)O)=C(CNC(=O)c3cc(O)c(O)c(Cl)c3)CSC12)c1csc(N)n1)C(=O)O (stereo not given in full)	16 µg/mL (≈ 24.4 µM)

System: Staphylococcus aureus
Experiment: microbe, parasite or virus in culture
Conditions: not given

Structure (SMILES)	MIC
CC(C)(O/N=C(\C(=O)N[C@@H]1C(=O)N2C(C(=O)O)=C(CNC(=O)c3cc(O)c(O)c(Cl)c3)CSC12)c1csc(N)n1)C(=O)O (stereo not given in full)	16 µg/mL (≈ 24.4 µM)

System: not listed separately
Experiment: The compound was evaluated for area under the curve in marmosets
Assay type: ADME
Conditions: callithrix, in vivo

Structure (SMILES)	AUC
CC(C)(O/N=C(\C(=O)N[C@@H]1C(=O)N2C(C(=O)O)=C(CNC(=O)c3cc(O)c(O)c(Cl)c3)CSC12)c1csc(N)n1)C(=O)O (stereo not given in full)	638.3 mg/h/L

System: Citrobacter freundii
Experiment: microbe, parasite or virus in culture
Conditions: not given
Remark: another data set of the same source

Structure (SMILES)	MIC
CC(C)(O/N=C(\C(=O)N[C@@H]1C(=O)N2C(C(=O)O)=C(CNC(=O)c3cc(O)c(O)c(Cl)c3)CSC12)c1csc(N)n1)C(=O)O (stereo not given in full)	0.008 µg/mL (≈ 0.0122 µM)

System: not listed separately
Experiment: physchem
Conditions: not given

Structure (SMILES)	pKa
CC(C)(O/N=C(\C(=O)N[C@@H]1C(=O)N2C(C(=O)O)=C(CNC(=O)c3cc(O)c(O)c(Cl)c3)CSC12)c1csc(N)n1)C(=O)O (stereo not given in full)	7

System: Enterobacter cloacae
Experiment: microbe, parasite or virus in culture
Conditions: not given
Remark: another data set of the same source

Structure (SMILES)	MIC
CC(C)(O/N=C(\C(=O)N[C@@H]1C(=O)N2C(C(=O)O)=C(CNC(=O)c3cc(O)c(O)c(Cl)c3)CSC12)c1csc(N)n1)C(=O)O (stereo not given in full)	0.06 µg/mL (≈ 0.0916 µM)

System: Staphylococcus aureus
Experiment: microbe, parasite or virus in culture
Conditions: not given
Remark: another data set of the same source

Structure (SMILES)	MIC
CC(C)(O/N=C(\C(=O)N[C@@H]1C(=O)N2C(C(=O)O)=C(CNC(=O)c3cc(O)c(O)c(Cl)c3)CSC12)c1csc(N)n1)C(=O)O (stereo not given in full)	16 µg/mL (≈ 24.4 µM)

System: Escherichia coli
Experiment: microbe, parasite or virus in culture
Conditions: not given

Structure (SMILES)	MIC
CC(C)(O/N=C(\C(=O)N[C@@H]1C(=O)N2C(C(=O)O)=C(CNC(=O)c3cc(O)c(O)c(Cl)c3)CSC12)c1csc(N)n1)C(=O)O (stereo not given in full)	0.008 µg/mL (≈ 0.0122 µM)

System: Pseudomonas aeruginosa
Experiment: microbe, parasite or virus in culture
Conditions: not given
Remark: another data set of the same source

Structure (SMILES)	MIC
CC(C)(O/N=C(\C(=O)N[C@@H]1C(=O)N2C(C(=O)O)=C(CNC(=O)c3cc(O)c(O)c(Cl)c3)CSC12)c1csc(N)n1)C(=O)O (stereo not given in full)	0.003 µg/mL (≈ 0.00458 µM)

System: Escherichia coli
Experiment: microbe, parasite or virus in culture
Conditions: not given
Remark: another data set of the same source

Structure (SMILES)	MIC
CC(C)(O/N=C(\C(=O)N[C@@H]1C(=O)N2C(C(=O)O)=C(CNC(=O)c3cc(O)c(O)c(Cl)c3)CSC12)c1csc(N)n1)C(=O)O (stereo not given in full)	0.008 µg/mL (≈ 0.0122 µM)

System: Pseudomonas aeruginosa
Experiment: microbe, parasite or virus in culture
Conditions: not given
Remark: another data set of the same source

Structure (SMILES)	MIC
CC(C)(O/N=C(\C(=O)N[C@@H]1C(=O)N2C(C(=O)O)=C(CNC(=O)c3cc(O)c(O)c(Cl)c3)CSC12)c1csc(N)n1)C(=O)O (stereo not given in full)	0.008 µg/mL (≈ 0.0122 µM)

System: Pseudomonas aeruginosa
Experiment: microbe, parasite or virus in culture
Conditions: not given
Remark: another data set of the same source

Structure (SMILES)	MIC
CC(C)(O/N=C(\C(=O)N[C@@H]1C(=O)N2C(C(=O)O)=C(CNC(=O)c3cc(O)c(O)c(Cl)c3)CSC12)c1csc(N)n1)C(=O)O (stereo not given in full)	0.008 µg/mL (≈ 0.0122 µM)
